Experiments:
[1] = Binding affinity to […] by fluorescence assay; set-up: species or system Hepacivirus hominis
Hepatitis C virus [2] = assay: Antiviral activity against HCV genotype 1b infected in human Huh7 cells assessed as inhibition of viral replication after 72 hrs by ELISA; format: functional, organism-based, Hepacivirus hominis; details: Huh-7, 72 h
[3] = Inhibition of HCV NS3/4A protease; set-up: species or system Hepacivirus hominis
Hepatitis C virus [4] = assay: Antiviral activity against HCV genotype 1b; format: functional, organism-based, Hepacivirus hominis
Hepatitis C virus [5] = assay: Antiviral activity against HCV genotype 1b infected in human Huh7 cells assessed as inhibition of viral replication by luciferase reporter-based viral replicon assay; format: functional, organism-based, Hepacivirus hominis; details: Huh-7
Hepatitis C virus [6] = assay: Antiviral activity against HCV genotype 1a infected in human Huh7 cells assessed as inhibition of viral replication by luciferase reporter-based viral replicon assay; format: functional, Hepacivirus hominis; details: subtype 1a, Huh-7
[7] = Ratio of plasma concentration in CRL-CD-BR rat at 8 hrs to EC50 for antiviral activity against HCV genotype 1b; format: ADME, cell-free
[8] = Ratio of plasma concentration in beagle dog at 8 hrs to EC50 for antiviral activity against HCV genotype 1b; format: ADME, cell-free
[9] = Ratio of plasma concentration in cynomolgus monkey at 8 hrs to EC50 for antiviral activity against HCV genotype 1b; format: ADME, cell-free
[10] = Ratio of drug level in liver to plasma in CRL-CD-BR rat; format: ADME, cell-free
[11] = Ratio of drug level in brain to plasma in CRL-CD-BR rat; format: ADME, cell-free; details: read-out: BPR

Row | SMILES | EC90 (Hepatitis C virus [5]) | other results
1 | CCCCc1c(C)nn(-c2nnc3c4ccccc4n(CC)c3n2)c1C |  | Kd [1]: 1200 nM; EC50 (Hepatitis C virus [2]): 1130 nM
2 | CC(C)(C)c1ccc(C(=O)Nc2sc3c(c2C(N)=O)CCCC3)cc1 |  | Kd [1]: 300 nM; EC50 (Hepatitis C virus [2]): 870 nM
3 | CCC[C@H](NC(=O)[C@@H]1[C@H]2CCC[C@H]2CN1C(=O)[C@@H](NC(=O)[C@@H](NC(=O)c1cnccn1)C1CCCCC1)C(C)(C)C)C(=O)C(=O)NC1CC1 |  | Ki [3]: 7 nM; EC50 (Hepatitis C virus [4]): 350 nM
4 | CC(C)C[C@H]1CN(C(=O)c2cc(-c3ccc([N+](=O)[O-])cc3)on2)[C@@H](CC(C)C)C(=O)N1 | 2600 nM | 
5 | CCC[C@H]1CN(C(=O)c2cc(-c3ccc(F)cc3)on2)[C@@H](CC(C)C)C(=O)N1 | 100 nM | 
6 | C/C=C/[C@H]1CN(C(=O)c2cc(-c3ccc(F)cc3)on2)[C@@H](CC(C)C)C(=O)N1 | 60 nM | 
7 | CC(C)C[C@H]1C(=O)N[C@@H](C2CCCC2)CN1C(=O)c1cc(-c2ccc(F)cc2)on1 | 90 nM | 
8 | CC(C)C[C@H]1C(=O)N[C@@H](CO)CN1C(=O)c1cc(-c2ccc(F)cc2)on1 | > 10000 nM | 
9 | COC[C@H]1CN(C(=O)c2cc(-c3ccc(F)cc3)on2)[C@@H](CC(C)C)C(=O)N1 | > 10000 nM | 
10 | CC(C)C[C@H]1C(=O)N[C@@H](c2ccccc2)CN1C(=O)c1cc(-c2ccc(F)cc2)on1 | 60 nM | 
11 | CC(C)C[C@H]1C(=O)N[C@@H](c2cccs2)CN1C(=O)c1cc(-c2ccc(F)cc2)on1 | 6 nM | EC90 (Hepatitis C virus [6]): 22 nM
12 | CCc1cc2c(cc1F)c(C#N)c(-c1ccc(S(=O)(=O)N[C@@H](C)C(F)(F)F)cn1)n2-c1ncccn1 |  | Ratio [7]: 325; Ratio [8]: 460; Ratio [9]: 50; Kp [10]: 25; Kp [11]: 0.22
13 | CC(C)C[C@H]1CN(C(=O)[C@@H]2C[C@H]2c2ccccc2)[C@@H](CC(C)C)C(=O)N1C | 8800 nM | 
14 | CC(C)C[C@H]1CN(C(=O)[C@@H]2C[C@H]2c2ccccc2)[C@@H](CC(C)C)CN1 | > 10000 nM | 

The next lines start with results.

Row | EC90 (Hepatitis C virus [5]) | SMILES | other results
15 | 1100 nM | CC(C)C[C@H]1CN(C(=O)c2cc(-c3ccccc3)on2)[C@@H](CC(C)C)C(=O)N1 | 
16 | 1400 nM | CC(C)C[C@H]1CN(C(=O)c2noc(-c3ccccc3)n2)[C@@H](CC(C)C)C(=O)N1 | 
17 | > 10000 nM | CC(C)C[C@H]1CN(C(=O)c2cc(-c3ccccc3)[nH]n2)[C@@H](CC(C)C)C(=O)N1 | 
18 | 1300 nM | COc1ccc(-c2cc(C(=O)N3C[C@H](CC(C)C)NC(=O)[C@@H]3CC(C)C)no2)cc1 | 
19 | 290 nM | CC(C)C[C@H]1CN(C(=O)c2cc(-c3ccc(Cl)cc3)on2)[C@@H](CC(C)C)C(=O)N1 | 
20 | 130 nM | CC(C)C[C@H]1CN(C(=O)c2cc(-c3ccc(F)cc3)on2)[C@@H](CC(C)C)C(=O)N1 | 
21 | > 10000 nM | CC[C@H]1C(=O)N[C@@H](CC(C)C)CN1C(=O)[C@@H]1C[C@H]1c1ccccc1 | 
22 | > 10000 nM | CC[C@H](C)[C@H]1CN(C(=O)[C@@H]2C[C@H]2c2ccccc2)[C@@H](CC(C)C)C(=O)N1 | 
23 | 900 nM | CCC[C@H]1CN(C(=O)[C@@H]2C[C@H]2c2ccccc2)[C@@H](CC(C)C)C(=O)N1 | 
24 | 2300 nM | CC(C)C[C@H]1CN(C(=O)/C=C/c2ccccc2)[C@@H](CC(C)C)C(=O)N1 | 
25 | > 10000 nM | CC(C)C[C@H]1CN(C(=O)/C=C\c2ccccc2)[C@@H](CC(C)C)C(=O)N1 | 

Source: ChEMBL document CHEMBL3751691, “A Journey around the Medicinal Chemistry of Hepatitis C Virus Inhibitors Targeting NS4B: From Target to Preclinical Drug Candidates” (J Med Chem, 2016)
